{"source": "patent US20250000872A1", "about": "“FORMULATIONS AND DOSING REGIMENS FOR RIP1 KINASE INHIBITORS FOR TREATING AUTOIMMUNE AND INFLAMMATORY DISEASES” (Eli Lilly and Company, priority 2023, published 2025)", "key": {"[1]": {"biological_target": "T1, CYP2C8 (Homo sapiens, UniProt P10632)", "T1 sequence (P10632 1-490)": "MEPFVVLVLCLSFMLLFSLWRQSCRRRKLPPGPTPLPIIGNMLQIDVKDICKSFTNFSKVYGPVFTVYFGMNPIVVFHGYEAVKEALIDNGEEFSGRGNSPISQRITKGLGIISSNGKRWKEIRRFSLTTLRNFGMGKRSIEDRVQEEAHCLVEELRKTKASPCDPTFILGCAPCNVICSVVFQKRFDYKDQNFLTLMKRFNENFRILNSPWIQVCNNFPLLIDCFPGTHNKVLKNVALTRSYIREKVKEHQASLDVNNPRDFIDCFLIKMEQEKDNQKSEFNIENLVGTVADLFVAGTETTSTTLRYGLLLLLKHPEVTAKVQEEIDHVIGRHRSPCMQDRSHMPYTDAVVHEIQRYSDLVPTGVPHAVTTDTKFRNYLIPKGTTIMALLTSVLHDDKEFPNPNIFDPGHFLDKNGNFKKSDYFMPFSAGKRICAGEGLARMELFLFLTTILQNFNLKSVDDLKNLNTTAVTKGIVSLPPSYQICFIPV", "experiment": "In vitro drug-drug interaction studies: CYP2C8 inhibition", "type": "in vitro ADME", "details": "based upon in vitro studies"}, "[2]": {"system": "rats", "experiment": "Rat embryofetal development study", "type": "in vivo"}, "[3]": {"experiment": "Rat embryofetal development study", "type": "in vivo", "details": "female, rat, in vivo, po; plasma toxicokinetics on Gestational Day 17, 1000 mg/kg/day; read-out: AUC0-24 at rat EFD NOEL"}, "[4]": {"system": "CYP3A5", "experiment": "In vitro drug-drug interaction studies: CYP3A5 induction", "type": "in vitro ADME", "details": "based upon in vitro studies"}, "[5]": {"biological_target": "T2, OATP2B1 (Homo sapiens, UniProt O94956)", "T2 sequence (O94956 1-709)": "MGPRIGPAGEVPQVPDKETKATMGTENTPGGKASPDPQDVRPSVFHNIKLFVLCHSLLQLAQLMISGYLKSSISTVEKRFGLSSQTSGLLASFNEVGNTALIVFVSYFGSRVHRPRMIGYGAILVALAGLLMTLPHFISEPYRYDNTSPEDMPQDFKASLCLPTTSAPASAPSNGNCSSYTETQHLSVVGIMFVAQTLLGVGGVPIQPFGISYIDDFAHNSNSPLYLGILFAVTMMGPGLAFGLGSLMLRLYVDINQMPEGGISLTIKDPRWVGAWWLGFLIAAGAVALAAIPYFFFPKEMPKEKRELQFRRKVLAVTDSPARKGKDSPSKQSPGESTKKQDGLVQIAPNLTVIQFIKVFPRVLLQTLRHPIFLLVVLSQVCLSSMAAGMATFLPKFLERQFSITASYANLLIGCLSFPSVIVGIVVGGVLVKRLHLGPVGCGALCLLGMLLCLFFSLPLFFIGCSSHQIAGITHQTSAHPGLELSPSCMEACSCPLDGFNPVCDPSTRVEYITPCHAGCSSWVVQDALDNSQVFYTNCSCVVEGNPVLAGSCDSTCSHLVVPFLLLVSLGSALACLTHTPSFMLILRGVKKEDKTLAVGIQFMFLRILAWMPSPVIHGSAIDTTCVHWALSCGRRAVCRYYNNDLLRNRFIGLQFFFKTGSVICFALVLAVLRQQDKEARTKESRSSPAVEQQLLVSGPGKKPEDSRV", "experiment": "In vitro drug-drug interaction studies: OATP2B1 transporter inhibition", "type": "in vitro ADME", "details": "based upon in vitro studies"}, "[6]": {"system": "rabbits", "experiment": "Rabbit embryofetal development study", "type": "in vivo"}, "[7]": {"experiment": "Rabbit embryofetal development study", "type": "in vivo", "details": "female, rabbit, in vivo, po; plasma toxicokinetics on Gestational Day 19, 120 mg/kg/day; read-out: AUC0-24 at rabbit EFD NOEL"}, "[8]": {"biological_target": "CYP2C9 (Homo sapiens, UniProt P11712)", "sequence (P11712 whole entry)": "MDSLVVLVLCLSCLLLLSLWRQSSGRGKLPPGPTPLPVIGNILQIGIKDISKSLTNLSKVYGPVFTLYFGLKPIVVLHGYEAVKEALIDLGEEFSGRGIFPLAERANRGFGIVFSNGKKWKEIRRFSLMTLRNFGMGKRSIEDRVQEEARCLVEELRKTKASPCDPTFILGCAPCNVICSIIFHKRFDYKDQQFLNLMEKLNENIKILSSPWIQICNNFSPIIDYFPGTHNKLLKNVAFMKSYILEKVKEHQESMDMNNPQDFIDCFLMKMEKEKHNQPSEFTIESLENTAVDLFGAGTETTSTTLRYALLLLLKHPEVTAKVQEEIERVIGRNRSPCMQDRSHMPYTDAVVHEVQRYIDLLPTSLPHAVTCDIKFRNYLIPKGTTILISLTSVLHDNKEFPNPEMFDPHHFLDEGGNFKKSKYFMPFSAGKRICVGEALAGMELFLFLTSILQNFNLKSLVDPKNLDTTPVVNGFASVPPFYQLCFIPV", "experiment": "In vitro drug-drug interaction studies: CYP2C9 inhibition", "type": "in vitro ADME", "details": "based upon in vitro studies"}, "[9]": {"system": "rats", "experiment": "6-month repeat-dose toxicity study in rats", "type": "in vivo"}, "[10]": {"experiment": "6-month repeat-dose toxicity study in rats", "type": "in vivo", "details": "rat, in vivo, po, 1000 mg/kg/day"}, "[11]": {"biological_target": "CYP2D6 (Homo sapiens, UniProt P10635)", "sequence (P10635 whole entry)": "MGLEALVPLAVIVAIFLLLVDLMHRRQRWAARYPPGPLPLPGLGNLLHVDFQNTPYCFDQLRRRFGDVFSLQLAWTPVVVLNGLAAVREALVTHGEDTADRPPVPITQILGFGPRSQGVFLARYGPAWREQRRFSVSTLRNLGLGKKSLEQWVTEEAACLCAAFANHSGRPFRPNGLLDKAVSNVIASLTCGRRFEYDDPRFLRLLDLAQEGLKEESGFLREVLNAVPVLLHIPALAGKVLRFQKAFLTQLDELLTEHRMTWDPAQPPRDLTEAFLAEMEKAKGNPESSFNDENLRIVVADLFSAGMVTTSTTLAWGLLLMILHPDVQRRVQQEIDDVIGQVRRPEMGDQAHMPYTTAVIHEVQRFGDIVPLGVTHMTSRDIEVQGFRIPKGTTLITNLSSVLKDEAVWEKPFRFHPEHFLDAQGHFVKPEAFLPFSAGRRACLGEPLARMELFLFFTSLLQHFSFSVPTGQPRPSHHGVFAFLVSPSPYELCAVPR", "experiment": "In vitro drug-drug interaction studies: CYP2D6 inhibition", "type": "in vitro ADME", "details": "based upon in vitro studies"}, "[12]": {"system": "CYP3A", "experiment": "Preliminary in vitro CYP3A induction data", "type": "in vitro ADME", "text": "Investigators should be aware of participants' concomitant use of CYP3A substrates."}, "[13]": {"details": "AUC in animals/(predicted) AUC in humans"}, "[14]": {"details": "concerns for women of childbearing potential"}}}
{"smiles": "CN1C(=O)[C@@H](NC(=O)c2n[nH]c(Cc3ccccc3)n2)COc2ccc(C#CC(C)(C)O)cc21", "note": "[Compound I, (S)-5-benzyl-N-(7-(3-hydroxy-3-methylbut-1-yn-1-yl)-5-methyl-4-oxo-2,3,4,5-tetrahydrobenzo[b][1,4]oxazepin-3-yl)-1H-1,2,4-triazole-3-carboxamide]", "values": [{"measurement": "inhibition of drugs metabolized by CYP2C8", "setting": "[1]", "result": "may inhibit"}, {"measurement": "Margin of Safety, rat EFD NOEL vs human 50 mg", "setting": "[2]; [13]", "result": 70, "unit": "X"}, {"measurement": "Margin of Safety, rat EFD NOEL vs human 125 mg", "setting": "[2]; [13]", "result": 28, "unit": "X"}, {"measurement": "developmental and reproductive toxicology outcome, rats", "setting": "[2]; [14]", "result": "did not reveal any concerns"}, {"measurement": "Rat EFD NOEL dose", "setting": "[2]; rat embryofetal development study", "result": 1000, "unit": "mg/kg/day"}, {"measurement": "AUC(0-t)", "setting": "[3]", "result": 1120, "unit": "µg·h/mL"}, {"measurement": "induction of CYP3A5", "setting": "[4]", "result": "may induce"}, {"measurement": "inhibition of substrates of OATP2B1 transporter", "setting": "[5]", "result": "may also inhibit"}, {"measurement": "Margin of Safety, rabbit EFD NOEL vs human 50 mg", "setting": "[6]; [13]", "result": 29, "unit": "X"}, {"measurement": "Margin of Safety, rabbit EFD NOEL vs human 125 mg", "setting": "[6]; [13]", "result": 12, "unit": "X"}, {"measurement": "developmental and reproductive toxicology outcome, rabbits", "setting": "[6]; [14]", "result": "did not reveal any concerns"}, {"measurement": "Rabbit EFD NOEL dose", "setting": "[6]; rabbit embryofetal development study", "result": 120, "unit": "mg/kg/day"}, {"measurement": "AUC(0-t)", "setting": "[7]", "result": 464, "unit": "µg·h/mL"}, {"measurement": "inhibition of drugs metabolized by CYP2C9", "setting": "[8]", "result": "may inhibit"}, {"measurement": "Margin of Safety, rat NOAEL vs human 50 mg", "setting": "[9]; [13]", "result": 67, "unit": "X"}, {"measurement": "Margin of Safety, rat NOAEL vs human 125 mg", "setting": "[9]; [13]", "result": 27, "unit": "X"}, {"measurement": "toxicology findings in rats", "setting": "[9]; toxicology studies up to 6 months", "result": "minimal effects"}, {"measurement": "AUC(0-t)", "setting": "[10]", "result": 1080, "unit": "µg·h/mL"}, {"measurement": "inhibition of drugs metabolized by CYP2D6", "setting": "[11]", "result": "may inhibit"}, {"measurement": "induction of CYP3A", "setting": "[12]", "result": "weak inducer"}]}
